# Key:
# [1] = test system: colon26-M3.1 carcinoma cells; test: Inhibitory effect of intravenously-administered HD-2 on cancer metastasis (lung); assay type: in vivo, mice
# Protocol: B16-BL6 melanoma cells or colon26-M3.1 carcinoma cells were inoculated into mice and number of metastatic tumor masses appearing in lungs was counted. […] The peak activity was observed a: 1-mg dose with very high anticancer efficacy (86%). […] This indicated oral administration of HD-2 was quite effective for treatment of established cancer.
# In this experiment, HD-2 was administered intravenously with dosage less than 500 mg/kg body weight per day.
# [2] = test system: 3T3-fibroblast cells; test: Cytotoxicity in 3T3-fibroblast cells, time course (XTT method); assay type: cell-based, murine
# Protocol: Cloned tumor cells of P388 leukemia, L1210 leukemia, L5178Y lymphoma, Colon26-M3.1 carcinoma, and B16-BL6 melanoma, from mice, and K562 leukemia, liver carcinoma HEP-G2, Hs578T breast cancer, AN-3-CA adenocarcinoma, DLD colon carcinoma, and HeLa epitheloid carcinoma, from human beings, were cultured in EMM, DMEM, or RMPI-1640 culture media containing 7.5% fetal bovine serum (FBS), as described in ATCC manual. […] Tumor cells in test wells were incubated in 5% CO2 incubator at 37° C. for 2 days.
# For further study of the cytotoxicity of each substance on cloned tumor cells, 3T3-fibroblast cells were cultured in test wells as described in experiment 1.
# [3] = 1 μg intravenous administration +1
# [4] = 10 μg intravenous administration +1
# [5] = 10 μg intravenous administration +7
# [6] = 100 μg intravenous administration +1
smiles,measurement,setting,value
"N.N.[Cl][Pt][Cl] [cisplatin, reference compound]",inhibitory rate,[1]; [3],34.2%
same,"number of metastatic mass, mean ± SD",[1]; [3],102 ± 28
same,inhibitory rate,[1]; [4],87.1%
same,"number of metastatic mass, mean ± SD",[1]; [4],20 ± 13
same,inhibitory rate,[1]; [5],50.0%
same,"number of metastatic mass, mean ± SD",[1]; [5],77 ± 12
same,inhibitory rate,[1]; [6],63.2%
same,"number of metastatic mass, mean ± SD",[1]; [6],57 ± 22
same,morphological observation of cells,"[2]; 3T3, 34 hours of treatment",partial necrosis of tumor cells or slowing of tumor growth
same,tumor growth,"[2]; 3T3, after 24 hours of administration",partial inhibition of tumor growth

# From patent publication US7261906B2, “Anti-cancer therapy agent of arsenic hexoxide (As4O6) of a natural chemical substance and its pharmaceutical composition” (priority 1998, dated 2007)
